From PMC3747596 (PLoS ONE, 2013)
Where two headings read alike, the source gives them in different places.

Columns and labels:
α2A = target: T1, α2A (Homo sapiens, UniProt P08913); assay: Radioligand displacement, α2A
T1 sequence (P08913 1-465): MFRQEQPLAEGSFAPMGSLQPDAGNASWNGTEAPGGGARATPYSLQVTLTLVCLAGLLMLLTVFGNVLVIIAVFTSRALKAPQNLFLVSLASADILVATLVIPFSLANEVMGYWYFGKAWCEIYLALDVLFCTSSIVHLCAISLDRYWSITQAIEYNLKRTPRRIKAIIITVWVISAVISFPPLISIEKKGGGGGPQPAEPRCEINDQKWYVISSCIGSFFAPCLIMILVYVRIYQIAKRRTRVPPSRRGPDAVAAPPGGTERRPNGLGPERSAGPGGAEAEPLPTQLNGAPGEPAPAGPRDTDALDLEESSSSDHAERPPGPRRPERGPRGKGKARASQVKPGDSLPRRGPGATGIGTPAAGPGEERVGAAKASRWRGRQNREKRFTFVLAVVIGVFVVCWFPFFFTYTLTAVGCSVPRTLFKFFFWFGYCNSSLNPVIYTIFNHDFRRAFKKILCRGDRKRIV

5-HT2b = 5-HT2b (Homo sapiens, UniProt P41595); assay: Radioligand displacement, 5-HT2b; format: binding
5-HT3 = target: T2, 5-HT3 (Homo sapiens, UniProt P46098); assay: Radioligand displacement, 5-HT3; format: binding
T2 sequence (P46098 24-478): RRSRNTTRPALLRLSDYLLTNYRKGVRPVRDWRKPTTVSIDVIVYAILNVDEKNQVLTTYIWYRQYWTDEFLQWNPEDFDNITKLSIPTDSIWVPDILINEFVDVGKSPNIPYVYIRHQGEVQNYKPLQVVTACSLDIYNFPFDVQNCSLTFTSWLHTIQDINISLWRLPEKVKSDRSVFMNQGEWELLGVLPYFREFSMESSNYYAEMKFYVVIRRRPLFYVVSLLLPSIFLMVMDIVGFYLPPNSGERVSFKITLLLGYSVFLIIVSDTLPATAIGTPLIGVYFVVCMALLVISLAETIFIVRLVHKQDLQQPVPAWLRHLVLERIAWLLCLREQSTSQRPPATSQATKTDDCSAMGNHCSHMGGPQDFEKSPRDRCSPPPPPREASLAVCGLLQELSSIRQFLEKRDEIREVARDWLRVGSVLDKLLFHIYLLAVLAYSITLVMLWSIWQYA

GABAA = assay: Radioligand displacement, GABAA; format: binding; details: [3H] radioligand Muscimol; Rat, forebrain
α1B = target: T3, α1B (Homo sapiens, UniProt P35368); assay: Radioligand displacement, α1B; format: binding
T3 sequence (P35368 1-520): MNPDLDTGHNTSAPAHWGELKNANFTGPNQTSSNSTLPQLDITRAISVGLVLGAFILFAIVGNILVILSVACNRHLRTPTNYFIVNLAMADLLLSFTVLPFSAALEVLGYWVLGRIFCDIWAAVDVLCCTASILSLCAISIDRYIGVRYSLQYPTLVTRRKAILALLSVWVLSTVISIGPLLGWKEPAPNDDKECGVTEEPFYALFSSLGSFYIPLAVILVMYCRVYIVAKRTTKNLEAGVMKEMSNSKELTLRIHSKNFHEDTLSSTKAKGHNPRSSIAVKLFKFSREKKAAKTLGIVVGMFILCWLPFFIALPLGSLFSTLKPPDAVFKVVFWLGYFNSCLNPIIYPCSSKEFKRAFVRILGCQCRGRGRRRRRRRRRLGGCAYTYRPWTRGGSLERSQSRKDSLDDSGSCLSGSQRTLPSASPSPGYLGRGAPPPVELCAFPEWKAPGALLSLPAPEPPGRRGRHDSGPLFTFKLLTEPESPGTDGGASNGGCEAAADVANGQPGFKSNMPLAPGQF

SERT = SERT (Homo sapiens, UniProt P31645); assay: Radioligand displacement, SERT; format: binding
D5 = D5 (Homo sapiens, UniProt P21918); assay: Radioligand displacement, D5; format: binding
α1D = target: T4, α1D (Homo sapiens, UniProt P25100); assay: Radioligand displacement, α1D; format: binding
T4 sequence (P25100 1-572): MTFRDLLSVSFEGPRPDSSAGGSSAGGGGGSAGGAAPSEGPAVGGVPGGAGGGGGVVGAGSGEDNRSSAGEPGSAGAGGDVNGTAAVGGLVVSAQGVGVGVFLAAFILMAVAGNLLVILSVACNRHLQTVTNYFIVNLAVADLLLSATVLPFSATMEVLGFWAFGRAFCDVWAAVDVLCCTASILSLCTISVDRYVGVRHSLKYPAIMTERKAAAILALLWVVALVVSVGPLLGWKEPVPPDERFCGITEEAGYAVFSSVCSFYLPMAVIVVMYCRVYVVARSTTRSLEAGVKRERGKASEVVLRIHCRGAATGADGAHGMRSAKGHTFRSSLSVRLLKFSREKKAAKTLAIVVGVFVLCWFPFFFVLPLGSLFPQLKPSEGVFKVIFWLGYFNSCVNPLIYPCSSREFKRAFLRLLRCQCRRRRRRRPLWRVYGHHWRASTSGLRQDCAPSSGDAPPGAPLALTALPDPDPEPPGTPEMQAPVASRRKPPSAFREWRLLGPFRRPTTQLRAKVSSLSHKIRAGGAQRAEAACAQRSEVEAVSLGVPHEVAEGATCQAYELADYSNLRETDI

GABAA (BZP) = assay: Radioligand displacement, GABAA (BZP); format: binding; details: [3H] radioligand Flunitrazepam; Rat, Brain
M5 = M5 (Homo sapiens, UniProt P08912); assay: Radioligand displacement, M5; format: binding
β2 = β2 (Homo sapiens, UniProt P07550); assay: Radioligand displacement, β2; format: binding
D3 = D3 (Homo sapiens, UniProt P35462); assay: Radioligand displacement, D3; format: binding
[1] = Ki, [3H] radioligand Prazosin, Human, Cloned
[2] = K i, D5, radioligand displacement (Table 1)
[3] = Ki, [3H] radioligand SCH23390, Human, Cloned

Chain of D5 (P21918 whole entry): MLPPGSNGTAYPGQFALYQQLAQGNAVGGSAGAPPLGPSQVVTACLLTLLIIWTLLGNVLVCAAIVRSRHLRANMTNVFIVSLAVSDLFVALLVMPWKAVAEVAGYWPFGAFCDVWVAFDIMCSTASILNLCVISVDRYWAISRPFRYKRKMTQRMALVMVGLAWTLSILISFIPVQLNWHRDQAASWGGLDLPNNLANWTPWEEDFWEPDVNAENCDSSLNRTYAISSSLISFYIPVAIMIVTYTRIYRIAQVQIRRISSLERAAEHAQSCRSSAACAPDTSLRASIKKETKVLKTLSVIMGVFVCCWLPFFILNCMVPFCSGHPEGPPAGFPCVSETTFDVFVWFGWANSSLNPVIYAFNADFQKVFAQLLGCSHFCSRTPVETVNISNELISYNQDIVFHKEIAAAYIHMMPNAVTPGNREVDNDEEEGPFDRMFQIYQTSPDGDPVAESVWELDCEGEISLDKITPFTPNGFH
Chain of M5 (P08912 whole entry): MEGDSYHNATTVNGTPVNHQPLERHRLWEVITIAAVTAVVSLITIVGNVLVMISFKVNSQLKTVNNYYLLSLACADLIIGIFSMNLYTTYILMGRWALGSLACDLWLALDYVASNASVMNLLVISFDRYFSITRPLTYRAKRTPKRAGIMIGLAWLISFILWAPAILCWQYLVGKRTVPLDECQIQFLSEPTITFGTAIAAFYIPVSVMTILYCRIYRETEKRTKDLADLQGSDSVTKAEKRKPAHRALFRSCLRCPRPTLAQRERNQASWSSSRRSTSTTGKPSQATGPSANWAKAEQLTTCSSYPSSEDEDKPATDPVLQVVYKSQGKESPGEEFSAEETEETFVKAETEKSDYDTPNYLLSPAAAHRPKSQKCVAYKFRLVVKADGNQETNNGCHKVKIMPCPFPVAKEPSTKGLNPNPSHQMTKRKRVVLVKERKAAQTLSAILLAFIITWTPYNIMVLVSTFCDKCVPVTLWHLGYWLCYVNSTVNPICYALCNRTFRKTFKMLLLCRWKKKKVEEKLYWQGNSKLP
Chain of D3 (P35462 whole entry): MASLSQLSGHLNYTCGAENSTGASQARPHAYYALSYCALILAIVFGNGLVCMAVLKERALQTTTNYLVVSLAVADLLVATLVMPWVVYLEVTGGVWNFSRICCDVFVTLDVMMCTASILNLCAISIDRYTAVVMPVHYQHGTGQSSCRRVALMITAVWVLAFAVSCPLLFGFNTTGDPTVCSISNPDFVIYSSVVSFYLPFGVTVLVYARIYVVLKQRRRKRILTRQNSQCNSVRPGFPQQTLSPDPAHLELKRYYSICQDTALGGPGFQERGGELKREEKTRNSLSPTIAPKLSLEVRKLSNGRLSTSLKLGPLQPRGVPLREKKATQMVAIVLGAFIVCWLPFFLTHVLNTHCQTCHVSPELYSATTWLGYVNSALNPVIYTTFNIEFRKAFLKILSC
Chain of 5-HT2b (P41595 whole entry): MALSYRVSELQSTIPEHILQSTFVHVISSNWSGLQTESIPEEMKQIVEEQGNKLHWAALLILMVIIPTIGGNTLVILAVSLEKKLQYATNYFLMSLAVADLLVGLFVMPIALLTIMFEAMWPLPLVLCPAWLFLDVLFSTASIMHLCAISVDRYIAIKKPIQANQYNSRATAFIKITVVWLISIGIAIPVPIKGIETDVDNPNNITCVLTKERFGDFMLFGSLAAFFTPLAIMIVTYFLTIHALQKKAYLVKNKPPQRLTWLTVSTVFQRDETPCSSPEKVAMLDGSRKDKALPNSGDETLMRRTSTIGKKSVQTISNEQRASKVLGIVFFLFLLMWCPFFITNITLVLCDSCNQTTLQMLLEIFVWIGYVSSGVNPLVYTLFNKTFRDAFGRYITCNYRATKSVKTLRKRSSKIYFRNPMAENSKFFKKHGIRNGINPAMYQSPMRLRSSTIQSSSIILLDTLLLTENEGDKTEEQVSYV
Chain of SERT (P31645 whole entry): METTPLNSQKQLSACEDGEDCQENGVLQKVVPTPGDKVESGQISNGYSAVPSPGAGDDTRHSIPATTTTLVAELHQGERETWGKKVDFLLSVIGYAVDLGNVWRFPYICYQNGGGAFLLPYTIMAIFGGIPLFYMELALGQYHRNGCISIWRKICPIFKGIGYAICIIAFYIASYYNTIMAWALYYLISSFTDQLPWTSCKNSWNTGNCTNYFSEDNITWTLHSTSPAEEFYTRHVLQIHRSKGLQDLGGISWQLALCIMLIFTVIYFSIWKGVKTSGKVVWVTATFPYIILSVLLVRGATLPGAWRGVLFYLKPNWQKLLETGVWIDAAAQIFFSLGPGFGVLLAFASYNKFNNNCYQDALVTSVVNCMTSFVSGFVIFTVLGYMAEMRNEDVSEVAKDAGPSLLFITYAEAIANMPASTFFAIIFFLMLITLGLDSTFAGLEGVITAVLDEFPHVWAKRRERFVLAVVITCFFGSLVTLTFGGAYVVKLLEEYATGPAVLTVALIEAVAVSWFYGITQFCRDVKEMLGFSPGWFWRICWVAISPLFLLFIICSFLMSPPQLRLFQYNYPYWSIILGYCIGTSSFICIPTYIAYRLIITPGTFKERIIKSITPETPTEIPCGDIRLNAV
Chain of β2 (P07550 whole entry): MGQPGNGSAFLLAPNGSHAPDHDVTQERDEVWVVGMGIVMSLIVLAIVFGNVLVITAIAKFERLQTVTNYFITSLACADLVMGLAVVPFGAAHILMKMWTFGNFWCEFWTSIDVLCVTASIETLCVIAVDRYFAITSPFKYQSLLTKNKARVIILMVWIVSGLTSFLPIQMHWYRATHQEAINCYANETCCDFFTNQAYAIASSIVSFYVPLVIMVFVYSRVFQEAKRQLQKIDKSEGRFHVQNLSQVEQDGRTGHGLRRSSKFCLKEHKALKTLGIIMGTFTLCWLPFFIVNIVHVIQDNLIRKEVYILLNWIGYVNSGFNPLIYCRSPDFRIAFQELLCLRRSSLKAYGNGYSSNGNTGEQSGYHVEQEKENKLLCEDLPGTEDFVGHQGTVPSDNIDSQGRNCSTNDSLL

With N=C(N)Nc1ccc2[nH]c3c(c2c1)C[C@@]1(O)[C@H]2Cc4ccc(O)c5c4[C@@]1(CCN2CC1CC1)[C@H]3O5 [GNTI, 5′-guanidinonaltrindole] the Ki (α2A; Ki, [3H] radioligand Rauwolscine, Human, Cloned) was ≥ 10 µM, the Ki (5-HT2b) was ≥ 10 µM and the Ki (5-HT3) was ≥ 10 µM. For the same molecule, the Ki (GABAA) was ≥ 10 µM, the Ki (α1B; [1]) was 8.9 µM and the Ki (α1B; Ki, binding curve File S1 (GNTI page), Alpha1B Receptor, [125I]HEAT (0.05 nM)) was 8.91 µM. The Ki (SERT) was ≥ 10 µM, the Ki (D5; [2]) was 8.2 µM and the Ki (D5; [3]) was 8.18 µM. For the same molecule, the Ki (α1D) was ≥ 10 µM, the Ki (GABAA (BZP)) was ≥ 10 µM and the Ki (M5) was ≥ 10 µM. For the same molecule, the Ki (β2) was ≥ 10 µM and the Ki (D3) was ≥ 10 µM.

With CC(C)[C@@H](CN1CC[C@@](C)(c2cccc(O)c2)[C@@H](C)C1)NC(=O)[C@H]1Cc2ccc(O)cc2CN1 [JDTic] the Ki (α2A) was ≥ 10 µM, the Ki (5-HT2b; [3H] radioligand LSD, Human, Cloned, read-out: Ki) was ≥ 10 µM and the Ki (5-HT3; [3H] radioligand LY278584, Human, Cloned, read-out: Ki) was ≥ 10 µM. For the same molecule, the Ki (GABAA) was ≥ 10 µM, the Ki (α1B; [3H] radioligand Prazosin, Human, Cloned, read-out: Ki) was 4.81 µM and the Ki (α1B; binding curve File S1 (JDTic page), Alpha1B Receptor, [125I]HEAT (0.12 nM), read-out: Ki) was 4.81 µM. For the same molecule, the Ki (α1B; α1B, radioligand displacement (Table 1), read-out: K i) was 4.8 µM, the Ki (SERT; [3H] radioligand Citalopram, Human, Cloned, read-out: Ki) was ≥ 10 µM and the Ki (D5; [3H] radioligand SCH23390, Human, Cloned, read-out: Ki) was ≥ 10 µM. The Ki (α1D; read-out: Ki) was ≥ 10 µM, the Ki (GABAA (BZP)) was ≥ 10 µM and the Ki (M5; [3H] radioligand QNB, Human, Cloned, read-out: Ki) was ≥ 10 µM. The Ki (β2; [3H] radioligand CGP12177, Human, Cloned, read-out: Ki) was ≥ 10 µM and the Ki (D3; [3H] radioligand N-Methylspiperone, Human, Cloned, read-out: Ki) was ≥ 10 µM.

In the case of Oc1ccc2c3c1O[C@H]1c4[nH]c5c(c4C[C@@]4(O)[C@@H](C2)N(CC2CC2)CC[C@]314)C[C@@]1(O)[C@H]2Cc3ccc(O)c4c3[C@@]1(CCN2CC1CC1)[C@H]5O4 [nor-BNI, Nor-binaltorphimine], the Ki (α2A; K i, α2A, radioligand displacement (Table 1)) is reported as 4.9 µM, the Ki (5-HT2b) is reported as ≥ 10 µM and the Ki (5-HT3) is reported as ≥ 10 µM. The Ki (GABAA) was ≥ 10 µM, the Ki (α1B; [1]) was ≥ 10 µM and the Ki (SERT) was ≥ 10 µM. For the same molecule, the Ki (D5; [2]) was 3.9 µM, the Ki (D5; [3]) was 3.92 µM and the Ki (D5; Ki, binding curve File S1, Dopamine5 Receptor, [3H]SCH23390 (1.2 nM), Dopamine Binding Buffer) was 3.92 µM. The Ki (α1D) was ≥ 10 µM, the Ki (GABAA (BZP)) was ≥ 10 µM and the Ki (M5) was ≥ 10 µM. For the same molecule, the Ki (β2) was ≥ 10 µM and the Ki (D3) was ≥ 10 µM.
